# Several values for one entry are separate records, joined by “and”; a condition that tells them apart may be missing. Identical values can stand only once.
# What was measured:
# [1] = molecular target: all lysyl oxidase family members; assay: Lysyl oxidase enzymatic activity, fluorescence-based assay, IC50 range over the family; type: biochemical, human; conditions: range over the five family members; read-out: IC50 values against all lysyl oxidase family members
# Method: In characterizing PXS-5505, the half-maximum inhibitory concentration (IC50) values for each of the lysyl oxidase family members were determined by measuring enzymatic activity using a fluorescence-based assay.
# [2] = 2D cell viability assay (MTS); type: cell-based, mouse; conditions: mouse, replicates
# Method: (§1) The 2D cell viability assays were performed using KPC CAFs and CCs seeded at (250 CAFs per well) and (500 CCs per well) in a 96-well plate. MTS solution (Promega) was added to the cells at a 1:20 dilution and cells were incubated at 37 °C for 2 h. Cell proliferation rates were measured by detecting the absorbance at 490 nm using a microplate reader. Three biological repeats were performed.
# (§2) Data presented as mean values +/− SD. f. […] Data presented as mean values +/− SD. […] Data presented as mean values +/− SD. […] Data presented as mean values +/− SD. Ordinary one-way ANOVA for multiple comparison test performed. Source data
# KPC CAFs [3] = assay: 2D cell viability assay (MTS); type: cell-based, mouse; conditions: for 2D cell viability (MTS assay): CAFs, replicates
# Method: as §1, §2
# KPC CCs = assay: 2D cell viability assay (MTS); type: cell-based, mouse; conditions: for 2D cell viability (MTS assay): Cancer cells, replicates
# Method: as §1, §2
# KPC CAFs [4] = assay: 3D organotypic matrix contraction assay; type: cell-based, mouse; design: measured area of matrices: unit not given here; conditions: for measured area of matrices: per replicate, n = 3
# Method: Fig. 3 PXS-5505 inhibition of CAF remodeling in vitro. a, Quantitative PCR with reverse transcription (qRT–PCR) showing in vitro comparison of KPC CAF relative expression of lysyl oxidase family members compared to KPC CCs from the same model (n = 3 biologically independent samples). Comparisons were determined by 2^–∆∆Ct approach. b, Representative images of 3D organotypic matrix contraction assay at days 2, 6 and 12 in the absence (gray) or presence (pink) of PXS-5505 (30 µM). Scale bars, 5 mm. Comparison of measured area of matrices between control and PXS-5505 treatment groups over time (n = 3 technical samples examined over three biologically independent samples). Data are mean ± s.d. c, Concentration of immature divalent DHLNL and mature trivalent Pyr collagen crosslinks determined by LC–MS from control and PXS-5505-treated organotypic matrices at day 12 (n = 3 technical samples examined over two biologically independent samples). Data are mean ± s.d. […] Data are presented as mean ± s.d. […] Comparison of number of CCs invaded per field of view (FOV) as determined by H&E and PanCK staining (nine images taken from three technical samples from each of three biologically independent contracted matrices), normalized to control. Data are mean ± s.d. Scale bars, 100 μm. […] Source data
# High-purity rat tail collagen for 3D organotypic assays was acid extracted following previously published methodology. The 12-day organotypic assays were carried out as described previously. In brief, 2 × 10^5 KPC CAFs were embedded in 2.5 ml 1.5 mg ml^−1 rat tail collagen and allowed to remodel for 12 days in a six-well plate in DMEM supplemented with 10% FBS and 1% penicillin–streptomycin in 21% O2/5% CO2 (Extended Data Fig. 4a). For human pancreatic cancer CAFs, 3.45 × 10^5 cells were embedded into 1.25 ml 1.5 mg ml^−1 rat tail collagen and allowed to remodel for 12 days in a 12-well plate in IMDM supplemented with 4 mM glutamine and 10% FBS in 21% O2/5% CO2.
# Extended Data Fig. 4 PXS-5505 inhibits collagen cross-linking by PDAC CAFs in vitro resulting in decreased cancer cell invasion. a. Schematic of organotypic matrix remodeling assay whereby CAFs are embedded into a 3D collagen matrix and growth media supplemented with or without PXS-5505 to inhibit lysyl oxidase family activity b. Chemical structures of lysyl oxidase family catalyzed hydroxyallysine or allysine residues and the subsequent divalent and trivalent bonds that are formed that can be quantified by mass spectrometry. c. Representative images of 3D organotypic matrix contraction by human pancreatic cancer CAFs at days 2, 6 and 12 in the absence (gray) and presence (pink) of PXS-5505 (30 µM). Scale bars = 5 mm. […] Data presented as mean values +/− SD. d. […] Data presented as mean values +/− SD. Relative fold expression of LOXL family members compared to LOX were determined by 2^–∆∆Ct approach. f. Schematic of cancer cell invasion in a 3D organotypic matrix assay whereby cancer cells are seeded to the surface of a remodeled collagen plug and placed at an air–liquid interface and allowed to invade into the remodeled matrix. […] Scale bars = 100 μm. g. […] Representative images of 3D organotypic matrix contraction assay at days 2, 6 and 12 of control (gray) and presence of PXS-5120 (blue) and PXS-5505 (pink). Scale bars = 5 mm. Comparison of measured area of matrices between control, PXS-5120 and PXS-5505 treatment groups (n = 3) over time. i. […] Representative images of invasion of KPC cancer cells into a contracted organotypic matrix as determined by H&E staining. […] Source data
# cytochrome P450 enzymes = assay: Cytochrome P450 inhibition
smiles,measurement,setting,value
"Cl.Cl.NC/C=C(\F)CS(=O)(=O)c1cccc2cccnc12.O [PXS-5505, (Z)-3-fluoro-4-(quinolin-8-ylsulfonyl)but-2-en-1-amine dihydrochloride monohydrate]",IC50,[1],200 to 5000 nM
same,viability,"[2]; KPC CAFs (2D culture), CAFs, PXS-5505 0.3 (unit inferred)",100%
same,viability,"[2]; KPC CAFs (2D culture), CAFs, PXS-5505 3 (unit inferred)",94.8%
same,viability,"[2]; KPC CAFs (2D culture), CAFs, PXS-5505 30 (unit inferred)",101%
same,viability,"[2]; KPC CAFs (2D culture), CAFs, PXS-5505 100 (unit inferred)",89.7%
same,viability,"[2]; KPC CAFs (2D culture), CAFs, PXS-5505 300 (unit inferred)",92.6%
same,viability,"[2]; KPC cancer cells (CCs, 2D culture), Cancer cells, PXS-5505 0.3 (unit inferred)",100%
same,viability,"[2]; KPC cancer cells (CCs, 2D culture), Cancer cells, PXS-5505 3 (unit inferred)",109%
same,viability,"[2]; KPC cancer cells (CCs, 2D culture), Cancer cells, PXS-5505 30 (unit inferred)",110%
same,viability,"[2]; KPC cancer cells (CCs, 2D culture), Cancer cells, PXS-5505 100 (unit inferred)",102%
same,viability,"[2]; KPC cancer cells (CCs, 2D culture), Cancer cells, PXS-5505 300 (unit inferred)",98.8%
same,2D cell viability (MTS assay),KPC CAFs [3]; PXS-5505 0.3 (unit not given),89.24 and 85.85
same,2D cell viability (MTS assay),KPC CAFs [3]; PXS-5505 3 (unit not given),104.51 and 107.51
same,2D cell viability (MTS assay),KPC CAFs [3]; PXS-5505 30 (unit not given),111.18 and 108.48
same,2D cell viability (MTS assay),KPC CAFs [3]; PXS-5505 100 (unit not given),94.55 and 103.25
same,2D cell viability (MTS assay),KPC CAFs [3]; PXS-5505 300 (unit not given),90.49 and 84.11
same,"effect on proliferation, 2D","KPC CAFs [3]; KPC CAFs, up to 300 µM",nor did it show any effect on proliferation
same,2D cell viability (MTS assay),KPC CCs; PXS-5505 0.3 (unit not given),100 and 109.75
same,2D cell viability (MTS assay),KPC CCs; PXS-5505 3 (unit not given),110.09 and 116.21
same,2D cell viability (MTS assay),KPC CCs; PXS-5505 30 (unit not given),104.54 and 100.45
same,2D cell viability (MTS assay),KPC CCs; PXS-5505 100 (unit not given),94.9 and 85.15
same,2D cell viability (MTS assay),KPC CCs; PXS-5505 300 (unit not given),94.9 and 96.71
same,"effect on proliferation, 2D","KPC CCs; KPC CCs, up to 300 µM",nor did it show any effect on proliferation
same,matrix contraction,"KPC CAFs [4]; KPC CAFs, PXS-5505 30 µM, days 2, 6 and 12",no macroscopic effect on matrix contraction
same,measured area of matrices,KPC CAFs [4]; time 0 (unit of time not given),9.616
same,measured area of matrices,KPC CAFs [4]; time 1 (unit of time not given),9.616
same,measured area of matrices,KPC CAFs [4]; time 2 (unit of time not given),9.561 and 9.616 (2×)
same,measured area of matrices,KPC CAFs [4]; time 3 (unit of time not given),9.0213 and 9.561 and 9.616
same,measured area of matrices,KPC CAFs [4]; time 4 (unit of time not given),6.466 and 5.808 and 8.601
same,measured area of matrices,KPC CAFs [4]; time 5 (unit of time not given),4.597 and 3.696 and 6.971
same,measured area of matrices,KPC CAFs [4]; time 6 (unit of time not given),3.299 and 2.6 and 5.471
same,measured area of matrices,KPC CAFs [4]; time 7 (unit of time not given),2.954 and 2.216 and 4.409
same,measured area of matrices,KPC CAFs [4]; time 8 (unit of time not given),2.6 and 1.886 and 3.595
same,measured area of matrices,KPC CAFs [4]; time 9 (unit of time not given),1.96 and 1.5386 and 2.216
same,measured area of matrices,KPC CAFs [4]; time 10 (unit of time not given),1.327 and 1.266 and 1.583
same,measured area of matrices,KPC CAFs [4]; time 11 (unit of time not given),1.149 and 1.168 and 1.41
same,measured area of matrices,KPC CAFs [4]; time 12 (unit of time not given),1.075 and 1.112 and 1.188
same,inhibition of cytochrome P450 enzymes,cytochrome P450 enzymes,does not inhibit

# — paper PMC10518255, “A first-in-class pan-lysyl oxidase inhibitor impairs stromal remodeling and enhances gemcitabine response and survival in pancreatic cancer” (Nature Cancer, 2023)
